Converted amounts (≈) assume the structure as drawn. “And” between values parts separate entries of the source, which are not always exact repeats. Identical values can stand only once. Like-named read-outs stand apart in the source and are kept apart here.
Key:
Epidermophyton floccosum = experiment: Antidermatophyte plaque growth inhibition; type: cell-based; settings: for IC50: E. floccosum growth, read-out: IC50; for inhibition at 100 µg/mL: read-out: Percent growth inhibition
[1] = test system: herpes simplex virus-1 TK-KOS ACVr; experiment: microbe, parasite or virus in culture; type: cell-based; settings: Human alphaherpesvirus 1, HEL, read-out: Antiviral EC50
Microsporum gypseum = experiment: Antidermatophyte plaque growth inhibition; type: cell-based; settings: Nannizzia gypsea; for IC50: M. gypseum growth, read-out: IC50; for inhibition at 100 µg/mL: read-out: Percent growth inhibition
[2] = Ferric reducing antioxidant power (FRAP) test; settings: mean ± SEM
[3] = test system: herpes simplex virus-1 (KOS); experiment: Antiviral activity in HEL cell cultures (CPE, MTS); type: cell-based; settings: Human alphaherpesvirus 1, HEL cells
[4] = DPPH radical scavenging test; settings: mean ± SEM; for DPPH (% Inhibition): tested at 1 mg/mL
[5] = test system: vesicular stomatitis virus; experiment: microbe, parasite or virus in culture; type: cell-based; settings: HeLa, read-out: Antiviral EC50
vaccinia virus = experiment: microbe, parasite or virus in culture; type: cell-based; settings: Orthopoxvirus vaccinia, HEL, read-out: Antiviral EC50
[6] = test system: human cervical carcinoma cells (HeLa); experiment: Cell proliferation inhibition
[7] = test system: human embryonic lung (HEL) cell cultures
Coxsackie virus B4 = experiment: Antiviral activity in HeLa cell cultures (CPE, MTS); type: cell-based; settings: Enterovirus B; Coxsackie virus B4, HeLa cells
[8] = UV filtering parameters of compounds in solution (MeOH, 290-400 nm)
Human Coronavirus (229E) = experiment: microbe, parasite or virus in culture; type: cell-based; settings: HEL, read-out: Antiviral EC50
[9] = test system: M. gypseum, M. canis, T. mentagrophytes, T. tonsurans and E. floccosum; experiment: Antidermatophyte activity, all five dermatophytes taken together; type: cell-based; settings: for Activity on dermatophytes (in words) / inhibition at 100 µg/mL: 100 µg/mL; for inhibition at 100 µg/mL / IC50: all five dermatophytes; for inhibition at 100 µg/mL: read-out: Percentage of growth inhibition over the five dermatophytes; for IC50: read-out: IC50 range over the five dermatophytes
[10] = test system: human T-lymphocyte cells (CEM); experiment: Cell proliferation inhibition
[11] = test system: herpes simplex virus-2 (G); experiment: Antiviral activity in HEL cell cultures (CPE, MTS); type: cell-based; settings: Human alphaherpesvirus 2; Herpes simplex virus-2, HEL cells
Adeno virus-2 = experiment: Antiviral activity in HEL cell cultures (CPE, MTS); type: cell-based; settings: Adeno virus-2, HEL cells
[12] = UV filtering parameters of cosmetic formulation on PMMA plates (modified Diffey-Robson); type: physicochemical
HeLa cell cultures = settings: human
[13] = test system: Respiratory syncytial virus; experiment: microbe, parasite or virus in culture; type: cell-based; settings: human respiratory syncytial virus, HeLa cells, read-out: Antiviral EC50
[14] = test system: Trichophyton mentagrophytes; experiment: Antidermatophyte plaque growth inhibition; type: cell-based; settings: for IC50: T. mentagrophytes growth, read-out: IC50; for inhibition at 100 µg/mL: read-out: Percent growth inhibition
Trichophyton tonsurans = experiment: Antidermatophyte plaque growth inhibition; type: cell-based; settings: for IC50: T. tonsurans growth, read-out: IC50; for inhibition at 100 µg/mL: read-out: Percent growth inhibition
[15] = test system: HEK293T (Normal Kidney Epithelial Cells); experiment: Cell proliferation inhibition, non-cancer control cells; settings: Homo sapiens, HEK-293T
Microsporum canis = experiment: Antidermatophyte plaque growth inhibition; type: cell-based; settings: for IC50: M. canis growth, read-out: IC50; for inhibition at 100 µg/mL: read-out: Percent growth inhibition
[16] = test system: human melanoma cells (SK-Mel 5); experiment: Cell proliferation inhibition
[17] = test system: human pancreatic carcinoma cells (Mia Paca-2); experiment: Cell proliferation inhibition
[18] = E. floccosum, 100 µg/mL, '+' has no key
[19] = M. gypseum, 100 µg/mL, '+' has no key
[20] = T. mentagrophytes, 100 µg/mL, '+' has no key
[21] = T. tonsurans, 100 µg/mL, '+' has no key
[22] = M. canis, 100 µg/mL, '+' has no key

c1c[nH]c(-c2nc3ccccc3[nH]2)c1 [Compound 10, 2-(1H-pyrrol-2-yl)-1H-benzimidazole]
IC50 (Epidermophyton floccosum): 1.07 ± 0.03 µg/mL (≈ 5.84 µM) | inhibition at 100 µg/mL (Epidermophyton floccosum; [18]): 102 ± 4.92% | EC50 [1]: > 100 µM | IC50 (Microsporum gypseum): 1.53 ± 0.05 µg/mL (≈ 8.35 µM) | inhibition at 100 µg/mL (Microsporum gypseum; [19]): 99.1 ± 1.33% | FRAP [2]: 1085.57 ± 0.88 µmolTE/g | EC50 [3]: > 100 µM | DPPH IC50 [4]: 64.098 µg/mL and 64.10 ± 3.21 µg/mL | melting point: > 250 °C | EC50 [5]: > 100 µM | EC50 (vaccinia virus): > 100 µM | IC50 [6]: 37 µM | Cytotoxic concentration [7]: > 100 µM | EC50 (Coxsackie virus B4): > 100 µM | UVA/UVB [8]: 0.02 | UVAPF [8]: 1.16±0.05 | λc (critical wavelength) [8]: 325 nm | EC50 (Human Coronavirus (229E)): > 100 µM | Activity on dermatophytes (in words) [9]: fungicide activity | inhibition at 100 µg/mL [9]: ~100% | IC50 [9]: 0.97 to 3.8 µg/mL (≈ 5.29 to 20.7 µM) | IC50 [10]: 14 ± 1 µM | EC50 [11]: > 100 µM | EC50 (Adeno virus-2): > 100 µM | SPF ([12]; 1% in formulation): 2.44 | UVA/UVB ([12]; 1% in formulation): 0.70 | UVAPF ([12]; 1% in formulation): 1.16 | λc ([12]; 1% in formulation): 341 nm | SPF ([12]; 2% in formulation): 2.72 | UVA/UVB ([12]; 2% in formulation): 0.73 | UVAPF ([12]; 2% in formulation): 1.32 | λc ([12]; 2% in formulation): 357 nm | SPF ([12]; 3% in formulation): 3.06 | UVA/UVB ([12]; 3% in formulation): 0.75 | UVAPF ([12]; 3% in formulation): 1.54 | λc ([12]; 3% in formulation): 364 nm | Cytotoxic concentration (HeLa cell cultures): > 100 µM | EC50 [13]: > 100 µM | IC50 [14]: 1.38 ± 0.08 µg/mL (≈ 7.53 µM) | inhibition at 100 µg/mL [14, 20]: 96.3 ± 2.42% | IC50 (Trichophyton tonsurans): 0.97 ± 0.06 µg/mL (≈ 5.29 µM) | inhibition at 100 µg/mL (Trichophyton tonsurans; [21]): 96.97 ± 0.62% | IC50 [15]: 31 ± 3 µM | IC50 (Microsporum canis): 1.34 ± 0.02 µg/mL (≈ 7.31 µM) | inhibition at 100 µg/mL (Microsporum canis; [22]): 96.8 ± 3.56% | IC50 [16]: 9.7 ± 1.7 µM | IC50 [17]: 15 ± 9 µM

c1csc(-c2nc3ccccc3[nH]2)c1 [Compound 12, 2-(thiophen-2-yl)-1H-benzimidazole]
IC50 (Epidermophyton floccosum): 3.8 ± 0.07 µg/mL (≈ 19 µM) | inhibition at 100 µg/mL (Epidermophyton floccosum; [18]): 94.7 ± 5.45% | EC50 [1]: > 100 µM | IC50 (Microsporum gypseum): 1.55 ± 0.03 µg/mL (≈ 7.74 µM) | inhibition at 100 µg/mL (Microsporum gypseum; [19]): 100 ± 1.63% | FRAP [2]: 75.89 ± 5.43 µmolTE/g | EC50 [3]: > 100 µM | DPPH (% Inhibition) [4]: 35.05 ± 0.87% | EC50 [5]: > 100 µM | EC50 (vaccinia virus): > 100 µM | IC50 [6]: > 100 µM | Cytotoxic concentration [7]: > 100 µM | EC50 (Coxsackie virus B4): > 100 µM | UVA/UVB [8]: 0.37 | UVAPF [8]: 1.49±0.07 | λc (critical wavelength) [8]: 345 nm | EC50 (Human Coronavirus (229E)): > 100 µM | Activity on dermatophytes (in words) [9]: fungicide activity | inhibition at 100 µg/mL [9]: ~100% | IC50 [9]: 0.97 to 3.8 µg/mL (≈ 4.84 to 19 µM) | IC50 [10]: > 100 µM | EC50 [11]: > 100 µM | EC50 (Adeno virus-2): > 100 µM | SPF ([12]; 1% in formulation): 2.41 | UVA/UVB ([12]; 1% in formulation): 0.71 | UVAPF ([12]; 1% in formulation): 1.16 | λc ([12]; 1% in formulation): 340 nm | SPF ([12]; 2% in formulation): 2.59 | UVA/UVB ([12]; 2% in formulation): 0.70 | UVAPF ([12]; 2% in formulation): 1.22 | λc ([12]; 2% in formulation): 342 nm | SPF ([12]; 3% in formulation): 2.79 | UVA/UVB ([12]; 3% in formulation): 0.69 | UVAPF ([12]; 3% in formulation): 1.26 | λc ([12]; 3% in formulation): 344 nm | Cytotoxic concentration (HeLa cell cultures): > 100 µM | EC50 [13]: > 100 µM | IC50 [14]: 1.74 ± 0.11 µg/mL (≈ 8.69 µM) | inhibition at 100 µg/mL [14, 20]: 98.1 ± 2.76% | IC50 (Trichophyton tonsurans): 2.42 ± 0.15 µg/mL (≈ 12.1 µM) | inhibition at 100 µg/mL (Trichophyton tonsurans; [21]): 97 ± 1.34% | IC50 [15]: > 100 µM | IC50 (Microsporum canis): 2.14 ± 0.09 µg/mL (≈ 10.7 µM) | inhibition at 100 µg/mL (Microsporum canis; [22]): 92.9 ± 1.33% | IC50 [16]: 86 ± 17 µM | IC50 [17]: ≥ 100 µM

O=C(O)c1ccc2[nH]c(-c3ccc[nH]3)nc2c1 [Compound 13, 2-(1H-pyrrol-2-yl)-1H-benzimidazole-5-carboxylic Acid]
inhibition at 100 µg/mL (Epidermophyton floccosum; [18]): 21.1 ± 2.14% | EC50 [1]: > 100 µM | inhibition at 100 µg/mL (Microsporum gypseum; [19]): 3.74 ± 1.49% | FRAP [2]: 108.89 ± 2.98 µmolTE/g | EC50 [3]: > 100 µM | DPPH (% Inhibition) [4]: 33.00 ± 1.28% | melting point: > 250 °C | EC50 [5]: > 100 µM | EC50 (vaccinia virus): > 100 µM | IC50 [6]: > 100 µM | Cytotoxic concentration [7]: > 100 µM | EC50 (Coxsackie virus B4): > 100 µM | SPF [8]: 7.40±0.23 | UVA/UVB [8]: 0.7 | UVAPF [8]: 1.10±0.09 | λc (critical wavelength) [8]: 345 nm | EC50 (Human Coronavirus (229E)): > 100 µM | IC50 [10]: > 100 µM | EC50 [11]: > 100 µM | EC50 (Adeno virus-2): > 100 µM | Cytotoxic concentration (HeLa cell cultures): > 100 µM | EC50 [13]: > 100 µM | inhibition at 100 µg/mL [14, 20]: < 0% | inhibition at 100 µg/mL (Trichophyton tonsurans; [21]): 4.55 ± 1.34% | IC50 [15]: > 100 µM | inhibition at 100 µg/mL (Microsporum canis; [22]): 8.66 ± 1.78% | IC50 [16]: > 100 µM | IC50 [17]: > 100 µM

Nc1nc(O)c2ncn(COC(CO)CO)c2n1 [Ganciclovir, reference compound]
EC50 [1]: 0.2 µM | EC50 [3]: 0.01 µM | EC50 (vaccinia virus): > 100 µM | Cytotoxic concentration [7]: > 250 µM | EC50 [11]: 0.01 µM

O=S(=O)(O)c1ccc2[nH]c(-c3ccccc3)nc2c1 [PBSA, 2-phenyl-1H-benzimidazole-5-sulphonic acid, reference compound]
inhibition at 100 µg/mL (Epidermophyton floccosum): 7.41 ± 0.43% | inhibition at 100 µg/mL (Microsporum gypseum): 9.62 ± 0.61% | FRAP [2]: <LOQ * | DPPH (% Inhibition) [4]: <LOQ * | SPF [8]: 3.40±0.17 | UVA/UVB [8]: 0.29 | UVAPF [8]: 1.03±0.08 | λc (critical wavelength) [8]: 322 nm | Activity on dermatophytes (in words) [9]: no activity on dermatophytes | SPF ([12]; 1% in formulation): 3.22 | UVA/UVB ([12]; 1% in formulation): 0.33 | UVAPF ([12]; 1% in formulation): 0.94 | λc ([12]; 1% in formulation): 319 nm | SPF ([12]; 2% in formulation): 4.63 | UVA/UVB ([12]; 2% in formulation): 0.22 | UVAPF ([12]; 2% in formulation): 0.94 | λc ([12]; 2% in formulation): 321 nm | SPF ([12]; 3% in formulation): 5.09 | UVA/UVB ([12]; 3% in formulation): 0.25 | UVAPF ([12]; 3% in formulation): 1.02 | λc ([12]; 3% in formulation): 324 nm | inhibition at 100 µg/mL [14]: < 0% | inhibition at 100 µg/mL (Trichophyton tonsurans): < 0% | inhibition at 100 µg/mL (Microsporum canis): < 0%

NC(=O)c1ncn([C@@H]2O[C@H](CO)[C@@H](O)[C@H]2O)n1 [Ribaravin, ribavirin, reference compound]
EC50 [5]: 112 µM | EC50 (Coxsackie virus B4): 250 µM | EC50 [13]: 10 µM
